Results from patent US11478467B2 (priority 2017, dated 2022).
Counter-ions that a name gives are not always drawn. Like-named read-outs stand apart in the source and are kept apart here.

What was measured:
[1] = molecular target: peripheral 5-HT2A receptors (Rattus norvegicus (Rat), UniProt P14842); details: cited from earlier work; for 5-methoxytryptamine-induced hyperglycemia: pretreatment
[2] = molecular target: T1, CYP2D6 (Homo sapiens (Human), UniProt P10635); details: DEX O-demethylation; read-out: estimated mean IC50; cited from earlier work
T1 sequence (P10635 whole entry): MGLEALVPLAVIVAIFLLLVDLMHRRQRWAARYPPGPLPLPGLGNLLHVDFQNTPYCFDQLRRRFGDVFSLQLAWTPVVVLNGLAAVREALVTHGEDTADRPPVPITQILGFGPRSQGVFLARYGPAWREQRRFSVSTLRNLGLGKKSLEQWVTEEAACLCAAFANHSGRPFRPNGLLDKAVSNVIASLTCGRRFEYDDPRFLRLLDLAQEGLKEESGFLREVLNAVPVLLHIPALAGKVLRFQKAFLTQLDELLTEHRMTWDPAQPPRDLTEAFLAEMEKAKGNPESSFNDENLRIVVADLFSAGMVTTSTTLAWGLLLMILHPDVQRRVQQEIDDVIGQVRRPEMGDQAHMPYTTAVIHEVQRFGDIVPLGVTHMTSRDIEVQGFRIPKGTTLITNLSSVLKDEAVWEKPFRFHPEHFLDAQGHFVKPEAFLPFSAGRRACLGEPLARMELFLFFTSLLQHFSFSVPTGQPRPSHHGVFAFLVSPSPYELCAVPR

[3] = cited from earlier work
[4] = molecular target: 5-HT2A receptors (Homo sapiens (Human), UniProt P28223); experiment: 5-HT2A receptor antagonist radioligand binding ([3H]ketanserin); details: for pKi / Ki: Ki calculated using the Cheng Prusoff equation; for IC50: inhibition of [3H]ketanserin binding, HEK-293 cells expressing human recombinant 5HT2A receptor
Sequence of 5-HT2A receptors (P28223 whole entry): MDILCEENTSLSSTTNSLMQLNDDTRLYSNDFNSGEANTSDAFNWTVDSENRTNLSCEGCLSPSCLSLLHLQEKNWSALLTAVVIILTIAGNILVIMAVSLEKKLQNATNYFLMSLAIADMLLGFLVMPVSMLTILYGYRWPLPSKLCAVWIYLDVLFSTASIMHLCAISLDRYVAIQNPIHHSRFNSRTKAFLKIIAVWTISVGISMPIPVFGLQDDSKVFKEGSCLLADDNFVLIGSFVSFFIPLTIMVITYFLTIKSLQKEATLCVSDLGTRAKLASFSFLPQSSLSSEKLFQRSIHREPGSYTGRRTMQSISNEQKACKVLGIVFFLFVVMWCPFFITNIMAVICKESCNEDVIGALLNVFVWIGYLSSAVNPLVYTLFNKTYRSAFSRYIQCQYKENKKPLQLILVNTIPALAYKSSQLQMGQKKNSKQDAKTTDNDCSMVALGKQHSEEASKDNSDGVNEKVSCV
Description: HEK-293 cells expressing human recombinant 5HT2A receptor were used in the antagonist radioligand binding studies. […] The inhibition constants (Ki) were calculated using the Cheng Prusoff equation. Both sarpogrelate enantiomers were potent inhibitors of [3H]ketanserin binding (Table 1). M1 enantiomers also potently bind to 5HT2A receptors with the Ki values that are approximately one order of magnitude higher than those of sarpogrelate enantiomers (Table 1). There are no meaningful differences between enantiomers in terms of 5-HT2A receptor binding for sarpogrelate or its main metabolite.
5HT2a ASSAY: Evaluation of the affinity of compounds for the human 5-HT2A receptor in transfected HEK-293 cells determined in a radioligand binding assay. Cell membrane homogenates (30-50 μg protein) were incubated 15 min at 37° C. with 0.5 nM [3H]ketanserin in the absence or presence of the test compound in a buffer containing 50 mM Tris-HCl (pH 7.4). Nonspecific binding was determined in the presence of 1 μM ketanserin. Following incubation, the samples were filtered rapidly under vacuum through glass fiber filters presoaked with 0.3% PEI and rinsed several times with ice-cold 50 mM Tris-HCl using a 96-sample cell harvester. The filters were dried then counted for radioactivity in a scintillation counter using a scintillation cocktail (WO2005013952A1, EP1500391A1[ab1], incorporated in its entirety by reference).

[5] = molecular target: T1, CYP2D6; experiment: Dextromethorphan O-demethylase activity in human liver microsomes; format: biochemical; details: CYP 2D6 activity; pooled human liver microsomes 0.25 mg/ml; read-out: IC50
Description: Dextromethorphan O-demethylase activity was determined in human liver microsomes. […] The incubation mixtures contained pooled human liver microsomes (final concentrations: 0.25 mg/ml), dextromethorphan, and a NADPH-generating system (1.3 mM NADP+, 3.3 mM glucose 6-phosphate, 3.3 mM MgCl2, and 0.4 U/ml glucose-6-phosphate dehydrogenase). […] All incubations were performed in triplicate, and mean values were used for analysis. […] Both sarpogrelate enantiomers inhibited CYP2D6-mediated dextromethorphan O-demethylation (Table 4).

[6] = Inhibition of dextromethorphan metabolism in vivo (dextromethorphan plasma levels after sarpogrelate); parameters: species or system rat; details: for Dextromethorphan AUC: dextromethorphan 50 mg/kg oral gavage, AUC 0-6 h, rat plasma
Description: In a separate set of studies, ability of sarpogrelate to inhibit dextromethorphan metabolism in vivo was studied in rats. Adult male Sprague Dawley rats (RjHan:SD) purchased from Janvier Labs (France) were housed in a climate-controlled room under a 12 h light/12 h dark cycle with ad libitum access to food and water. Two-three days prior to blood sampling, rats were provided with a catheter in the jugular vein and, thereafter, rats treated once with Carprofen (5 mg/kg) directly after surgery and catheters were rinsed daily with Heparin (500 IE/ml) (20 μl/rat/day). On the day of the experiment, dextromethorphan (50 mg/kg) was administered by oral gavage, immediately followed by intravenous bolus injection of sarpogrelate (1, 3 or 10 mg/kg; racemate or one of the enantiomers) or vehicle via vascular access port at t=0 h. Blood samples were collected at four time points until 6 hours post dextromethorphan administration. Sample size was 80 μl Li-heparin whole blood/time point, i.e. 40 μl Li-heparin plasma/time point. Whole blood samples were stored on ice until centrifugation (10 min at 3000 g, 4° C.). Plasma was prepared within 45 min after collection, frozen at −20° C. and stored at this temperature until processed for LC-MS analysis.

[7] = test system: PCP-induced hyperactivity; experiment: Phencyclidine-induced hyperactivity in rats (sarpogrelate and dextromethorphan); format: in vivo, rat; details: in the presence of dextromethorphan; racemate 3 mg/kg, (−) sarpogrelate 1 or 3 mg/kg i.p.; PCP 5 mg/kg s.c.; 60-120 min
[8] = test system: MK-801-induced hyperactivity; experiment: MK-801-induced hyperactivity in rats; format: in vivo, rat
Description: To confirm the ability of M1 enantiomers to induce effects that are relevant to CNS diseases and that are known for 5-HT2A receptor […], separate groups of female Wistar rats (n=6-9), housed 4-5 per cage under standard colony room conditions with free access to food and water, were pretreated intraperitoneally with varying doses of one of the two M1 enantiomers (0, 3 or 10 mg/kg) followed 15 minutes later by 0.1 mg/kg of MK801 or its vehicle and immediately thereafter placed into computer-controlled motor activity recording chambers (25×35.5×34 cm, L×W×H; transparent Plexiglas walls and a non-transparent plastic floor; enclosed within sound-attenuating ventilated cubicles) for 60 minutes, during which infrared photocell interruptions (5 cm and 14 cm off the floor) were recorded as a measure of motor activity. MK-801 is a phencyclidine-like NMDA receptor channel blocked commonly used in psychopharmacology research on novel therapies including novel antipsychotics.

[9] = test system: locomotor activity, stereotypy, ataxia; details: DO 15-120 mg/kg, DEX 15-120 mg/kg, PCP 1.25-20 mg/kg; rats; cited from earlier work
[10] = test system: behavioral disturbances in Alzheimer's disease; details: human, in vivo; cited from earlier work
[11] = test system: NPI scores and sleep in patients with AD; details: human, in vivo; cited from earlier work
[12] = molecular target: T1, CYP2D6; details: dextromethorphan as substrate; cited from earlier work
[13] = sarpogrelate dose 1 mg/kg i.v. bolus
[14] = sarpogrelate dose 3 mg/kg i.v. bolus
[15] = sarpogrelate dose 10 mg/kg i.v. bolus

For COc1ccc2[nH]cc(CCN)c2c1 [5-methoxytryptamine], the blood glucose ([1]; agonist given alone) is listed as “induced hyperglycemia”.
For CN1CCN(CC/C=C2/c3ccccc3Sc3ccc(S(=O)(=O)N(C)C)cc32)CC1 [Cisthiothixene], the IC50 [2] is listed as 137000 nM.
In the case of COc1cccc(CCc2ccccc2OCC(CN(C)C)OC(=O)CCC(=O)O)c1 (stereo not shown) [Compound 50 hydrochloride, Butanedioic acid, mono(2-(dimethylamino)-1-((2-(2-(3-methoxyphenyl)ethyl)phenoxy)methyl)ethyl) ester, hydrochloride], the mortality ([3]; 5, 20, 80 and 320 mg/kg/day orally, 52 weeks, beagle dogs) is listed as “No animal died or was sacrificed in extremis”, the Food consumption ([3]; dog, in vivo, po) is listed as “inhibited in females receiving 80 mg/kg/day and over” and the biochemical examination ([3]; dog, in vivo, po) is listed as “an increase in potassium in males receiving 80 mg/kg/day and over, and females receiving 320 mg/kg/day”. The “electrocardiographic or ophthalmoscopic examination” value ([3]; dog, in vivo, po) was “no treatment related change”, the “general conditions: emesis” value ([3]; dog, in vivo, po) was “emesis was noted in males and females receiving 320 mg/kg/day and males receiving 80 mg/kg/day” and the “general conditions: salivation” value ([3]; dog, in vivo, po) was “salivation in females receiving 320 mg/kg/day”. The hematological examination ([3]; dog, in vivo, po) was “an increase in a platelet count in males receiving 320 mg/kg/day”, the “histopathological examination of the kidney” value ([3]; dog, in vivo, po) was “fatty degeneration was revealed in the cortico-medullary border zone of the kidney in males receiving 320 mg/kg/day” and the urinalysis ([3]; dog, in vivo, po) was “an increase in protein was revealed in females receiving 320 mg/kg/day”. The water consumption ([3]; dog, in vivo, po) was “inhibition of water consumption”.
COc1cccc(CCc2ccccc2OC[C@H](CN(C)C)OC(=O)CCC(=O)O)c1 [Compound 51] showed a pKi [4] of 8.4, an IC50 [4] of 7.5 nM and an IC50 [5] of 580 nM. The “Fold increase (relative to vehicle) of dextromethorphan AUC” value (“Fold increase (relative to vehicle)” for short) ([6]; sarpogrelate dose 1 mg/kg) was 1.4 fold, the “Dextromethorphan AUC” value [6, 13] was 827.0 ng·h/mL and the “Fold increase (relative to vehicle)” value ([6]; sarpogrelate dose 3 mg/kg) was 3.3 fold. The “Dextromethorphan AUC” value [6, 14] was 2021.5 ng·h/mL, the “Fold increase (relative to vehicle)” value ([6]; sarpogrelate dose 10 mg/kg) was 6.9 fold and the “Dextromethorphan AUC” value [6, 15] was 4154.3 ng·h/mL.
COc1cccc(CCc2ccccc2OCC(CN(C)C)OC(=O)CCC(=O)O)c1 (stereo not shown) [Compound 52] showed a pKi [4] of 8.2, an IC50 [4] of 11 nM and an IC50 [5] of 1300 nM. For the same compound, the “Fold increase (relative to vehicle)” value ([6]; sarpogrelate dose 1 mg/kg) was 1.5 fold, the “Dextromethorphan AUC” value [6, 13] was 921.4 ng·h/mL and the “Fold increase (relative to vehicle)” value ([6]; sarpogrelate dose 3 mg/kg) was 2.7 fold. The “Dextromethorphan AUC” value [6, 14] was 1649.5 ng·h/mL, the “Fold increase (relative to vehicle)” value ([6]; sarpogrelate dose 10 mg/kg) was 5.3 fold and the “Dextromethorphan AUC” value [6, 15] was 3195.9 ng·h/mL. The “motor hyperactivity in PCP-treated rats” value [7] was “inhibited motor hyperactivity in PCP-treated rats”.
Work on COc1cccc(CCc2ccccc2OC[C@@H](O)CN(C)C)c1 [Compound 147, (S)-1-(dimethylamino)-3-(2-(3-methoxyphenethyl)phenoxy)propan-2-ol] yielded a Ki [4] of 0.794 nM, an IC50 [4] of 1.2 nM and an IC50 [5] of 38 nM.
In the case of COc1cccc(CCc2ccccc2OC[C@H](O)CN(C)C)c1 [Compound 148, (R)-1-(dimethylamino)-3-(2-(3-methoxyphenethyl)phenoxy) propan-2-ol], the Ki [4] is reported as 0.631 nM, the IC50 [4] is reported as 1.3 nM and the IC50 [5] is reported as 96 nM. For the same compound, the “hyperactivity induced by MK-801 (motor activity, 60 min)” value ([8]; M1 enantiomer 3 or 10 mg/kg i.p., 15 min before 0.1 mg/kg MK801, female Wistar rats) was “reduced hyperactivity induced by MK-801”.
In the case of COc1cccc([C@H](O)C2CCN(CCc3ccc(F)cc3)CC2)c1OC [M-100,907], the “hyperactivity induced by MK-801 (motor activity, 60 min)” value ([8]; 3 mg/kg) is reported as “reduced hyperactivity induced by MK-801”.
In the case of c1ccc(C2(N3CCCCC3)CCCCC2)cc1 [PCP, 1-(1-phenylcyclohexyl)piperidine], the “behavioral effects given alone (locomotor hyperactivity, stereotypy, ataxia)” value [9] is listed as “dose-dependent locomotor hyperactivity, stereotypy and ataxia”.
In the case of O=C(c1ccc(F)cc1)C1CCN(CCn2c(=O)[nH]c3ccccc3c2=O)CC1 [ketanserin], the 5-methoxytryptamine-induced hyperglycemia [1] is listed as “prevented”.
For CC12CC3CC(C)(C1)CC(N)(C3)C2 [memantine, 3,5-dimethyladamantan-1-amine], the agitation/aggression [10] is given as “significant improvement in agitation/aggression”, the delusions [10] is given as “significant improvement in delusions” and the disinhibition [10] is given as “significant improvement in disinhibition”. For the same compound, the irritability/lability [10] was “superior to control in irritability/lability”, the “nighttime disturbance/diurnal rhythm disturbances” value [10] was “significant improvement in nighttime disturbance/diurnal rhythm disturbances” and the fragmented sleep [11] was “effective in reducing fragmented sleep”. For the same compound, the “scores of NPI item for irritability/lability” value [11] was “significantly decreases the scores of NPI item for irritability/lability” and the “scores of NPI subscale for anxiety” value [11] was “significantly decreases in the scores of NPI subscale for anxiety”.
In the case of C=C[C@H]1C[N@@]2CC[C@H]1C[C@@H]2[C@@H](O)c1ccnc2ccc(OC)cc12 [quinidine], the “inhibition type (Dixon plots)” value [12] is given as “fit well to all competitive inhibition types”.
For Cc1nc2n(c(=O)c1CCN1CCC(c3noc4cc(F)ccc34)CC1)CCCC2 [risperidone], the IC50 [2] is given as 39100 nM.
In the case of COc1cccc(OC(C)CNC(=N)Cc2cccc(C)c2)c1 (stereo not shown) [xylamidine], the 5-methoxytryptamine-induced hyperglycemia [1] is given as “prevented”.
